Entries after “also recorded” stand apart in the source; their conditions may differ.
Columns and labels:
human TLR8 = molecular target: T1, human TLR8 (Homo sapiens, UniProt Q9NR97); experiment: TLR7/8-NF-κB reporter assay (HEK-TLR8, SEAP); format: cell-based; settings: HEK-TLR8 cells, 24 hrs, read-out: EC50 of TLR8 (mean ± SD)
T1 construct: host or cells: HEK (HEK293) cells with NF-kB-responsive SEAP reporter
T1 sequence (Q9NR97 27-1041): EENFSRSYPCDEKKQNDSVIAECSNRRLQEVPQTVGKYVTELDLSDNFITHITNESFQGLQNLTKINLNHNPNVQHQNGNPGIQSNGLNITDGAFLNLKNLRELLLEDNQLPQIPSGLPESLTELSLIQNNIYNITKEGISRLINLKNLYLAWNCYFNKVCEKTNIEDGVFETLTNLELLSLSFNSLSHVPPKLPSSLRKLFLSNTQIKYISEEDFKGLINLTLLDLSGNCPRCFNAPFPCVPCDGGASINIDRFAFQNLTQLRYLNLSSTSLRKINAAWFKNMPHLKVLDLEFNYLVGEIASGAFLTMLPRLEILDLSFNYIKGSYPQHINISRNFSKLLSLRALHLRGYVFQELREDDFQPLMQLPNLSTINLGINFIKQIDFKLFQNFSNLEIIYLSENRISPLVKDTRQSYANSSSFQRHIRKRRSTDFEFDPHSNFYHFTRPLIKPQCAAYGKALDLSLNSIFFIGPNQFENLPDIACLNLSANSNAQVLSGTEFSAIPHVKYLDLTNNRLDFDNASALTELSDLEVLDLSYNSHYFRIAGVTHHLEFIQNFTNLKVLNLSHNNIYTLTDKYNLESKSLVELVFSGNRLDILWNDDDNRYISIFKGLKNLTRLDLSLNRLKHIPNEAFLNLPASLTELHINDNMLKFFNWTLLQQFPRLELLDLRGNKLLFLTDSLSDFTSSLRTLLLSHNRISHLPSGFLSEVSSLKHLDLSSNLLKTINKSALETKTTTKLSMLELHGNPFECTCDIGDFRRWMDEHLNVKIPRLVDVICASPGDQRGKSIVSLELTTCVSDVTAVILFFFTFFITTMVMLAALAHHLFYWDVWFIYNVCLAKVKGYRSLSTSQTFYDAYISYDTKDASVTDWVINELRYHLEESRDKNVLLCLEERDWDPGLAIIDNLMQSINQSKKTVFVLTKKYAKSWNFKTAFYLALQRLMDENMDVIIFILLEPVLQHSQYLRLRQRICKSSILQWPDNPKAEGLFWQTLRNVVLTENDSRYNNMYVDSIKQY
Experimental: Human embryonic kidney (HEK) cells that were stably transfected with human TLR7 or TLR8 and an NF-κB—responsive secreted embryonic alkaline phosphatase (SEAP) gene (HEK-TLR7/8) were purchased from InvivoGen (San Diego, Calif.). The procedure used to measure TLR7 or TLR8 agonist activity was conducted as described by Hood et al. (Hood J. D, et al., Human Vaccines, 2010, 6, 4, 322-335). Briefly, HEK-TLR7/8 cells were stimulated with 3.3 or 30 μM of compound in a 96-well plate in DMEM containing 10% FBS and 0.01% Normocin (InvivoGen) for 24 hrs. Twenty microliters of the supernatant from each well was incubated with Quanti-blue substrate solution (InvivoGen) at 37° C. for 1 hour and absorbance was read at 650 nm using a Synergy plate reader (Biotek, Winooski, Vt.).

[1] = test system: human monocyte-derived dendritic cells (MoDC); experiment: Human MoDC immunostaining and flow cytometric analysis (maturation, DC phenotype); format: cell-based
Experimental: (§1) 1. Dendritic cells were generated from peripheral blood monocytes as described (Brossart P, et al. Blood. 1998; 92: 4238-4247). In brief, CD14 positive monocytes were from a healthy human peripheral blood mononuclear cells (PBMC) obtained via isolation with Lymphocyte Separation Medium (Mediatech, Inc, Manassas, Va.) and after purification with CD14 microbeads from Miltenyi Biotec Inc (Aubun, Calif.). The CD14 positive monocytes (>95% CD14) were cultured into immature monocyte-derived dendritic cells (MoDC) by further 6 day culture with GM-CSF (100 ng/ml) and IL-4 (100 ng/ml)(R&D, MN). 2. 0.1 million of MoDC were plated into 96-well plate and stimulated for 48 hours with 5 different concentration of following TLRs: 412, 420, 421, 414 and 415 at concentration of 0, 0.325, 1.3, 5.2 and 20.8 nmol/ml in triplicate. In other experiments (FIGS. 34 and 35), fresh PBMC (not DC) were used as the responder cells to the indicated compounds and cytokines levels were measured by bead array according to the manufacture's protocol (BD biosciences).
48 hours after stimulation, the cells were stained with anti-HLA-DR, CD11c, CD-86, CD80, CD83, CD8a, CD123 and relevant isotype control (eBioscience, San Diego, Calif.). The cells were loaded on FACS-canto II and analyzed with FACSDiva and Flowjo

[2] = test system: human monocyte-derived dendritic cells (MoDC); experiment: Human MoDC inflammatory cytokines by cytometric bead assay; format: cell-based
Experimental: as §1
The supernatant were harvested 48 hours after stimulation with TLRs. Inflammatory cytokines level was identified with CBA, following the producer's instruction (BD, San Jose, Calif.)

BMDC or splenocytes = experiment: Inflammatory cytokine detection in BMDC and splenocytes (CBA); format: cell-based, C57BL/6j mice; settings: Example 6, FIG. 23; compared to resiquimod and imiquimod
Experimental: Bone marrow cells were harvested from femurs and tibias of C57BL/6j. After red blood cells were removed with ammonium-chloride-potassium buffer, the bone marrow cells were cultured with complete RPMI-1640 medium and 2 ng/ml of granulocyte macrophage colony-stimulating factor (GM-CFS) at 5% CO2 and 37° C. for 6 days. Medium was changed twice during 6 days culture. Single cell suspension of splenocytes was prepared in the same way as one in IL-6 detection assay. BMDC or splenocytes were stimulated in triplicate with Imiquimod-derived new TLR ligand compounds, 412, 420, 421, 422, IMQ (414) and Resquimod (415) at various concentration of 20.8 nmol/ml, 5.2 nmol/ml, 1.3 nmol/ml, 0.325 nmol/ml and 0 nmol/ml. 48 hours after stimulation, the supernatants were harvested and frozen at −80° C. until detection. A cytometric bead array (CBA, BD Bioscience) was performed on inflammatory cytokines following the manufacture's instruction. 500 events were collected. Analysis of all samples was performed on FACScanto-II machine with software and further analyzed with Flowjo. Standard curves and negative control (PBS) were included for each cytokine to calculate the cytokine concentration in the samples.

EC50 (human TLR8): 49.6 ± 1.02 µM
SMILES: CCCCc1nc2c(N)nc3cc(C(=O)OC)ccc3c2n1CC(C)(C)O [Compound 420, 4-Amino-2-butyl-1-(2-hydroxy-2-methylpropyl)-7-methoxycarbonyl-1H-imidazo[4,5-c]quinoline]
differentiation of myeloid DC into CD123+ plasmacytoid DC ([1]; human MoDC (FIG. 4)): did not
MoDC maturation (raising CD86 co-stimulator level and CD83) ([1]; human MoDC, 48 hours after stimulation): same efficiency as Resiquimod and significantly stronger than imiquimod
IL-1β induction / secretion ([2]; human MoDC (FIG. 11)): induction of IL-1β; also recorded: the only drug tested that caused appreciable IL-1b secretion
production of inflammatory cytokines ([2]; human MoDC, supernatant 48 hours after stimulation): higher production of “inflammatory cytokines”, compared to imiquimod (but less stronger than Resquimod)
elaboration of proinflammatory TNFa (BMDC or splenocytes): significantly greater elaboration of proinflammatory TNFa compared to the other drugs

Source: patent US9034336B2, “Immunomodulators and immunomodulator conjugates” (Regents of the University of Minnesota, priority 2011, dated 2015)
